Laboratory results from article PMC9848259 (Journal of Enzyme Inhibition and Medicinal Chemistry, 2023).
Read-outs that look alike come from different tables or passages of the source.

Legend:
[1] = in vitro; assay type: cell-based; conditions: human, human hepatic stellate cells (HSCs), read-out: cell viability (hepatotoxicity, MTT)
Method: Human hepatic stellate cells (HSCs, Sciencell) were grown in the Stellate Cell Medium (Sciencell) supplemented with 2% Foetal Bovine Serum (Sciencell), 1% Stellate Cell Growth Supplement (Sciencell) and 1% penicillin/streptomycin solution (Sciencell). The cells were cultured in the incubator at 37 °C and 5% CO2. To start the experiment, the cells were seeded at a density of 5 × 10^3 cells/well in 96-well plates and incubated (37 °C, 5% CO2) for 24 h. After incubation, medium was removed from the wells and the cells were exposed to 100 µl of the compound over a range of concentrations (from 0.1 to 10 µM) or 100 µl of culture medium alone (blank control). The cells were then further incubated for 24 h. After this time, the medium was removed, the cells were washed with PBS and 50 µl of MTT solution (0.75 mg/ml) was added to each well. The plates were incubated in the dark at 37 °C for another two hours. The MTT solution was then removed from the wells and 100 µl of DMSO was added. The plates were incubated at room temperature for 10 min and then 5 µl of Sorensen Buffer was added to each well. The plates were swayed and the absorbance at 570 nm was measured with a microplate reader (Synergy H1, BioTek, Winooski, VT, USA). The cell viability was expressed as a percentage of the control values (blank control)[40]^,[46]^,[47].

[2] = molecular target: Aβ(1–42) aggregation (Homo sapiens, UniProt P05067); test: In vitro β-amyloid assay, Thioflavin T fluorescence; assay type: biochemical; conditions: ThT
Aβ(1–42) aggregation, sequence (P05067 672-713 limits assumed): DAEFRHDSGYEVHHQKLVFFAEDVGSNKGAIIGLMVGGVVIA

[3] = system: female mice, Balb/c; test: In vivo acute oral toxicity (OECD 423)
Method: (§1) Compound 3e was administered by the oral route (by gavage) in one of four fixed doses (5, 50, 300, 2000 mg/kg) for a given stage of the study. The results allow to classify the compound according to the Globally Harmonised Classification System for Chemical Substances and Mixtures (GHS). In addition, the LD50 cut-off values was determined. According to the figure from the OECD 423 guidelines, a maximum of six test stages can be performed. Three animals (female mice, Balb/c) took part in each stage, and the number of stages depends on the mortality of the animals, which is the final test parameter. The research was carried out on the basis of the agreement of the Local Ethical Committee for animal testing in Łódź No. 56/115 ŁB/2018.
(§2) After quarantine, handling, weighing and labelling, the compound 3e was given in a dose of 300 mg/kg (300 mg/kg is a dose used in the absence of information on the toxicity of the test substance. If 2–3 animals die after using this dose, compound will be given at a lower dose − 50 mg/kg. Last dose 5 mg/kg is used if after a dose of 50 mg/kg also 2–3 animals die. If no death occurs, or death of one animal, the compound is again administered to the stomach in the same dose 300 mg/kg, and […], a dose of 2000 mg/kg of body weight is used). The presence of a substance-dependent mortality of animals exposed at one stage determines the performance of the next stage of the study. After each dose, animals are observed for 14 days. […].

[4] = In vivo acute oral toxicity (OECD 423); parameters: species or system mice; conditions: female, Balb/c, mouse, in vivo, OECD 423, read-out: LD50 cut-off
Method: as §1, §2

[5] = system: SH-SY5Y cells; test: Neuroprotection against H2O2-induced oxidative stress, MTT test; assay type: cell-based, human; conditions: H2O2 100 µM
[6] = system: SHSY5Y cell; test: Toxicity towards SH-SY5Y cells (MTT); assay type: cell-based; conditions: 0.1–10 µM
Method: The SH-SY5Y (human neuroblastoma) (European Collection of Cell Culture) was chosen to determine the neuroprotective properties of the novel compounds. The Ham’s F12:EMEM (1:1) medium was used (Sigma Aldrich), comprising 15% Foetal Bovine Serum (Biowest), 2 mM Glutamine (Sigma Aldrich), 100 units/ml penicillin and […] (Biological Industries) and 1% Non-Essential Amino Acids (Biological Industries).
SH-SY5Y cells were seeded at a density of 5 × 10^3 cells/well in 96-well plates. The cells were cultured for 24 h (37 °C, 5% CO2). After 24 h of incubation, the medium was removed and cells were exposed to 100 µl of the compound at a range of concentrations, or of culture medium alone (blank control). After incubation, the medium was removed, washed with PBS and 50 µl of the MTT solution was added. The plates were then incubated for two hours (37 °C, 5% CO2). The MTT solution was then removed from the wells and 100 µl of DMSO was added. The plates were incubated for 10 min at room temperature and then 5 µl of Sorensen Buffer was added. The plates were swayed and the absorbance measured in a microplate reader (Synergy H1, BioTek, Winooski, VT, USA) at a wavelength of 570 nm. Cell viability was expressed as a percentage of control values (blank control). The experiments were done in triplicate.

[7] = pKa assay (spectrophotometric); assay type: physicochemical; conditions: potassium phosphate buffer series with methanol, 23 °C
Method: Potassium dihydrogen phosphate, potassium hydroxide and methanol (POCH) were used to prepare the buffer solution, as described previously. […]. The pH was measured in 23 °C by using a Mettler Toledo FiveEasy pH metre with a LE438 Lab pH electrode (Mettler Toledo). Our tested compound solution was 5 µM solution in methanol: water (1:1) mix.
Spectrophotometric measurement was performed in a 96-well plate using a Synergy H1 microplate reader (BioTek) with Gen5 software (BioTek). The full assay consisted of 35 UV spectrum measurements, one for each work buffer solution. For the assay, 180 μL sequent work buffer and 20 μL tested compound solution were added to each of 35 wells. For the blank, 200 μL sequent work buffer alone was added to each of 35 wells. The measurement was performed at 23 °C. The spectra were recorded from 280 nm to 380 nm in 1 nm steps. Concentrations were calculated based on the 332/343 nm and 343/332 nm ratio as described previously. The results were compared with computer calculations of pKa value obtained using chemicalize.com online software (ChemAxon 2018) and ACD/Percepta version 14.0.0 (Advanced Chemistry Development, Inc., Metropolitan Toronto, Canada).

[8] = system: DNA; test: DNA damage; conditions: any tested concentration

For O=C(NCCCCCCNc1c2c(nc3ccccc13)CCC2)c1cc(Cl)cc(Cl)c1 [Compound 3e], the viability at 24 h, 0.1 µM ([1]; 0.1 µM) was 102%, the viability at 24 h, 1 µM ([1]; 1 µM) was 100% and the viability at 24 h, 10 µM ([1]; 10 µM) was 97.3%. It also gave an inhibition at 5 µM ([2]; 5 µM compound) of 55.7 ± 4.7%, an inhibition at 10 µM ([2]; 10 µM compound) of 62.7 ± 5.3% and an inhibition at 25 µM ([2]; 25 µM compound) of 76.5 ± 3.7%. For the same compound, the inhibition at 50 µM ([2]; 50 µM compound) was 79.8 ± 2.9%, the inhibition at 100 µM ([2]; 100 µM compound) was 82.6 ± 1.7% and the mortality ([3]; 300 mg/kg, first and second stages, 3 female Balb/c mice per stage) was “did not cause any death”. For the same compound, the mortality ([3]; 2000 mg/kg, stage one, 3 mice) was “no animal died”, the mortality ([3]; 2000 mg/kg, stage two, 3 mice) was “two died” and the GHS classification ([3]; OECD 423) was “Category 4 GHS”. The LD50 at 14 days [4] was 1000 mg/kg, the “% neuroprotection” value ([5]; compound 0.01 µM) was 40.04% and the “% neuroprotection” value ([5]; compound 0.1 µM) was 79.34%. The “% neuroprotection” value ([5]; compound 1 µM) was 71%, the “toxicity towards SHSY5Y cell” value [6] was “non-toxic” and the pKa ([7]; read-out: pKa1 Experimental) was 8.4. For the same compound, the pKa ([7]; read-out: pKa2 Experimental) was 11.3 and the DNA damage [8] was “did not induce DNA damage”.
